Data set [1] has as its system U373 MG. As to the kind of experiment: Growth inhibition of MGMT-transfected human U373 cells expressing MGMT after 7 days by MTT assay. Format: functional, U-373MG ATCC. The settings on record: 168 h.
In data set [2] the test system is U373 MG. Kind of data set: Growth inhibition of vehicle-transfected human U373 cells after 7 days by MTT assay. The format is functional, U-373MG ATCC. The conditions noted are these: 168 h.
Data set [3] relates to SNB-19. As to the kind of experiment: Growth inhibition of vehicle-transfected human SNB19 cells after 7 days by MTT assay. Format: functional. The conditions noted are these: SNB-19, 168 h. (Formazan colour is commonly taken as a measure of viable cells.)
Data set [4] concerns SNB-19. Kind of data set: Growth inhibition of MGMT-transfected human SNB19 cells expressing MGMT after 7 days by MTT assay. The format is functional. The settings on record: SNB-19, 168 h.
A short description of data set [5]: Drug level in deuterated phosphate buffer/D2O at pD 7 treated with 3-Trimethylsilylmethylimidazotetrazine measured every 15 mins for 12 to 18 hrs by 1H NMR method.
Data set [6] in a line: Drug level in deuterated phosphate buffer/D2O at pD 7 treated with 3-(2-Trimethylsilylethoxy)methylimidazotetrazine measured every 15 mins for 12 to 18 hrs by 1H NMR method.

The values that follow come from ChEMBL document CHEMBL4261573, “Synthesis and growth-inhibitory activities of imidazo[5,1-d]-1,2,3,5-tetrazine-8-carboxamides related to the anti-tumour drug temozolomide, with appended silicon, benzyl and heteromethyl groups at the 3-position” (Medchemcomm, 2018).

With `NC(=O)c1ncn2c(=O)n(Cc3ccccc3)nnc12`, the GI50 in the data set with U373 MG [1], with U373 MG [2], with SNB-19 [3] and in the data set on SNB-19 [4] was above 50 µM each time.
Regarding `Cc1cc(Cn2nnc3c(C(N)=O)ncn3c2=O)on1`, the 50% growth inhibitory concentration (GI50) with U373 MG [1], with U373 MG [2], in the data set with SNB-19 [3] and in the data set with SNB-19 [4] was above 50 µM each time.
Regarding `COc1cc(Cn2nnc3c(C(N)=O)ncn3c2=O)cc(OC)c1OC`, the concentration for 50% growth inhibition (GI50) in the data set with U373 MG [1], with U373 MG [2], in the data set on SNB-19 [3] and with SNB-19 [4] was above 50 µM each time.
On to `Cc1noc(Cn2nnc3c(C(N)=O)ncn3c2=O)n1`, for which the GI50 in the data set with U373 MG [1], in the data set on U373 MG [2], with SNB-19 [3] and with SNB-19 [4] was above 50 µM throughout.
On to `C[Si](C)(C)Cn1nnc2c(C(N)=O)ncn2c1=O`, for which the GI50 (usually the concentration that inhibits growth by half) came to 250 µM in the data set with U373 MG [1], 45.6 µM with U373 MG [2], 28.4 µM in the data set on SNB-19 [3] and 302 µM in the data set on SNB-19 [4].
On the same counts, the results for `CC[C@@H](c1ccccc1)n1nnc2c(C(N)=O)ncn2c1=O` are above 50 µM, above 50 µM, above 50 µM and above 50 µM.
As to `CO` [METHYL ALCOHOL], the Drug metabolism entry in data set [5] is “Metabolite_Detected”.
Consider `NC(=O)c1nc[nH]c1N/N=N/Cc1ccccc1`, for which the GI50 in the data set on U373 MG [1], in the data set with U373 MG [2], with SNB-19 [3] and in the data set on SNB-19 [4] was above 50 µM throughout.
For `C[Si](C)(C)CCO`, the Drug metabolism result in data set [6] was “Metabolite_Detected”.
`NC(=O)c1nc[nH]c1N/N=N/CCc1ccccc1`: the concentration for 50% growth inhibition (GI50) with U373 MG [1], with U373 MG [2], with SNB-19 [3] and in the data set on SNB-19 [4] was above 50 µM each time.
For the molecule `COc1ccc(Cn2nnc3c(C(N)=O)ncn3c2=O)c(OC)c1`, the GI50 with U373 MG [1], with U373 MG [2], in the data set on SNB-19 [3] and in the data set on SNB-19 [4] was above 50 µM throughout.
As for `NC(=O)c1nc[nH]c1N/N=N/Cc1ccsc1`, the GI50 in the data set on U373 MG [1], in the data set on U373 MG [2], with SNB-19 [3] and in the data set on SNB-19 [4] was above 50 µM in each case.
As to `CC(c1ccc(Br)cc1)n1nnc2c(C(N)=O)ncn2c1=O` (racemic), the GI50 in the data set on U373 MG [1], in the data set with U373 MG [2], in the data set on SNB-19 [3] and in the data set on SNB-19 [4] was above 50 µM throughout.
With `COc1ccc(Cn2nnc3c(C(N)=O)ncn3c2=O)cc1`, the GI50 with U373 MG [1], in the data set on U373 MG [2], in the data set on SNB-19 [3] and in the data set on SNB-19 [4] was above 50 µM in each case.
As to `NC(=O)c1nc[nH]c1N/N=N/Cc1ccoc1`, the GI50 in the data set with U373 MG [1], with U373 MG [2], in the data set with SNB-19 [3] and in the data set with SNB-19 [4] was above 50 µM in each case.
Take `NC(=O)c1ncn2c(=O)n(Cc3ccsc3)nnc12`: the GI50 in the data set with U373 MG [1], in the data set with U373 MG [2], in the data set on SNB-19 [3] and in the data set with SNB-19 [4] was above 50 µM throughout.
Consider `NC(=O)c1[nH]cnc1N`, for which the Drug metabolism result in data set [5] and in data set [6] was “Metabolite_Detected” in each case.
`NC(=O)c1ncn2c(=O)n(CCc3ccccc3)nnc12`: the 50% growth inhibitory concentration (GI50) in the data set with U373 MG [1], in the data set with U373 MG [2], in the data set with SNB-19 [3] and in the data set with SNB-19 [4] was above 50 µM each time.
`NC(=O)c1nc[nH]c1N/N=N/Cc1cccs1`: the GI50 in the data set with U373 MG [1], in the data set on U373 MG [2], with SNB-19 [3] and in the data set with SNB-19 [4] was above 50 µM each time.
As to `C[C@H](c1ccccc1)n1nnc2c(C(N)=O)ncn2c1=O`, the concentration for 50% growth inhibition (GI50) with U373 MG [1] is above 50 µM; in the data set on U373 MG [2], above 50 µM; with SNB-19 [3] it was 32.7 µM; in the data set on SNB-19 [4] it was 49.7 µM.
Regarding `COP(=O)(O)O` [PHOSPHORIC ACID MONOMETHYL ESTER], the Drug metabolism result in data set [5] is given as “Metabolite_Detected”.
As to `COc1ccccc1Cn1nnc2c(C(N)=O)ncn2c1=O`, the 50% growth inhibitory concentration (GI50) in the data set with U373 MG [1], in the data set on U373 MG [2], in the data set on SNB-19 [3] and with SNB-19 [4] was above 50 µM throughout.
Consider `C=O.O`, for which the Drug metabolism entry in data set [6] was “Metabolite_Detected”.
Regarding `COc1ccc([C@@H](C)n2nnc3c(C(N)=O)ncn3c2=O)cc1`, the GI50 in the data set on U373 MG [1], in the data set with U373 MG [2], in the data set on SNB-19 [3] and in the data set on SNB-19 [4] was above 50 µM each time.
On to `C[C@@H](c1ccccc1)n1nnc2c(C(N)=O)ncn2c1=O`, for which the concentration for 50% growth inhibition (GI50) in the data set on U373 MG [1] was above 50 µM; with U373 MG [2] it was above 50 µM; in the data set on SNB-19 [3], 34.7 µM; in the data set with SNB-19 [4], 45.3 µM.
Turning to `NC(=O)c1ncn2c(=O)n(Cc3ccco3)nnc12`, the GI50 with U373 MG [1], in the data set on U373 MG [2], in the data set on SNB-19 [3] and in the data set with SNB-19 [4] was above 50 µM each time.
In the case of `NC(=O)c1ncn2c(=O)n(Cc3cccs3)nnc12`, the 50% growth inhibitory concentration (GI50) with U373 MG [1], in the data set with U373 MG [2], with SNB-19 [3] and with SNB-19 [4] was above 50 µM in each case.
For `NC(=O)c1nc[nH]c1N/N=N/Cc1ccco1`, the GI50 in the data set on U373 MG [1], in the data set on U373 MG [2], in the data set on SNB-19 [3] and with SNB-19 [4] was above 50 µM in each case.
As to `COc1cccc(Cn2nnc3c(C(N)=O)ncn3c2=O)c1`, the GI50 with U373 MG [1], in the data set on U373 MG [2], in the data set with SNB-19 [3] and in the data set with SNB-19 [4] was above 50 µM throughout.
For `NC(=O)c1ncn2c(=O)n(Cc3c[nH]nn3)nnc12`, the GI50 in the data set with U373 MG [1], in the data set with U373 MG [2], in the data set with SNB-19 [3] and with SNB-19 [4] was above 50 µM in each case.
On to `COc1ccc(Cn2nnc3c(C(N)=O)ncn3c2=O)cc1OC`, for which the GI50 in the data set with U373 MG [1], in the data set with U373 MG [2], in the data set with SNB-19 [3] and with SNB-19 [4] was above 50 µM throughout.
Regarding `C[Si](C)(C)CCOCn1nnc2c(C(N)=O)ncn2c1=O`, the 50% growth inhibitory concentration (GI50) worked out at 24.2 µM in the data set with U373 MG [1], 25.3 µM with U373 MG [2], 29.9 µM in the data set on SNB-19 [3] and 27.5 µM in the data set with SNB-19 [4].
Consider `Cn1nnc2c(C(N)=O)ncn2c1=O` [TEMOZOLOMIDE], for which the GI50 in the data set on U373 MG [1] was 369 µM; with U373 MG [2] it was 68 µM; in the data set with SNB-19 [3] it was 35.7 µM; with SNB-19 [4], 470 µM.
Regarding `NC(=O)c1ncn2c(=O)n(C(c3ccccc3)c3ccccc3)nnc12`, the GI50 in the data set with U373 MG [1], in the data set with U373 MG [2], with SNB-19 [3] and in the data set with SNB-19 [4] was above 50 µM in each case.
